What was measured:
[1] = biological target: T1, Human Factor XIIa (hFXIIa) (Homo sapiens, UniProt P00748); experiment: Determination of Human Factor XIIa (hFXIIa) inhibition, fluorogenic substrate IC50 assay; assay type: biochemical; details: fluorogenic substrate H-DPro-Phe-Arg-AFC at Km, 25° C., read-out: Human FXIIa IC50
T1 construct: purchased Enzyme Research Laboratories
T1 sequence (P00748 373-615 limits assumed): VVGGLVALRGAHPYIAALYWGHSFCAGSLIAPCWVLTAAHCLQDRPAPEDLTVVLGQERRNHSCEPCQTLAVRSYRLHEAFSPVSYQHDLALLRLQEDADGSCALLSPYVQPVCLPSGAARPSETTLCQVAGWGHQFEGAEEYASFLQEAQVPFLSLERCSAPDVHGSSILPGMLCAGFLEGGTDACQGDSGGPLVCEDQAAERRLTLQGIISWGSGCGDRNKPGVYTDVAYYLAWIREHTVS
T1 sequence (P00748 20-372 partner limits assumed): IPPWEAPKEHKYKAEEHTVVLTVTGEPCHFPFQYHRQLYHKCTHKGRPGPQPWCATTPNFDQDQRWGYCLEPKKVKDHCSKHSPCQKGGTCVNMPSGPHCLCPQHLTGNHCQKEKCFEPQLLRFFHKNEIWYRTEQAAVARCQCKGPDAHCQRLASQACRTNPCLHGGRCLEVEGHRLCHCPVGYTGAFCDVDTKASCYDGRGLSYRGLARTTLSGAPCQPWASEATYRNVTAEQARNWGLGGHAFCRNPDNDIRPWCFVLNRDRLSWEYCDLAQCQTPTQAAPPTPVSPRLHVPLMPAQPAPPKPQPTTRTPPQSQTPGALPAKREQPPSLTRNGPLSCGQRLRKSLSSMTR
Method: Determination of Human Factor XIIa (hFXIIa) inhibition
The Km for the cleavage of the substrate by hFXIIa was determined by standard transformation of the Michaelis-Menten equation, with subsequent inhibition assays performed at substrate Km concentration.

FXa = FXa (Homo sapiens, UniProt P00742); experiment: Related protease inhibition: FXa, fluorogenic substrate; assay type: biochemical; details: fluorogenic substrate at Km, 25° C.; H1-H3 = % activity at 40 μM
Method: Human serine protease enzyme Plasma Kallikrein, KLK1, FXa, Plasmin, Thrombin and Trypsin were assayed for enzymatic activity using an appropriate fluorogenic substrate at Km concentration, FXIa at fixed substrate concentration of 100 μM and various concentrations of the test compound.

Chain of FXa (P00742 235-488 limits assumed): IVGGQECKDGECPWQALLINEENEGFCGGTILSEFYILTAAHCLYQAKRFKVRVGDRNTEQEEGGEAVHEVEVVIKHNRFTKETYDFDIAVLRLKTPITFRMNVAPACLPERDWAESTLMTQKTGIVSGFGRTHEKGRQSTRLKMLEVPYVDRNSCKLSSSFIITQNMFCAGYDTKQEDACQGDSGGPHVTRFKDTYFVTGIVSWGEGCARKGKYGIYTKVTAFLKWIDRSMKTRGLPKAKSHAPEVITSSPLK
Chain of FXa (P00742 41-179 partner limits assumed): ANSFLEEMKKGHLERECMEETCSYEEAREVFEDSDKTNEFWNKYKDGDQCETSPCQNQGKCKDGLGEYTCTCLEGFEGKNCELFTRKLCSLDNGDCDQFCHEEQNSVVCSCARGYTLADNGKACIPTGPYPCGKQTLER

Row | Compound | IC50 [1] | IC50 (FXa)
1 | O=C(NCc1ccccc1)c1nn(-c2cccc(Cl)c2)c2c1CCN(c1cccc(CN3CCCCC3)c1)C2=O [Example 1001, N-Benzyl-1-(3-chlorophenyl)-7-oxo-6-(3-(piperidin-1-ylmethyl)phenyl)-4,5,6,7-tetrahydro-1H-pyrazolo[3,4-c]pyridine-3-carboxamide] | 100 to 300 nM | > 40000 nM
2 | O=C(NCC1CC1)c1nn(-c2cccc(Cl)c2)c2c1CCN(c1cccc(CN3CCCCC3)c1)C2=O [Example 1002, 1-(3-chlorophenyl)-N-(cyclopropylmethyl)-7-oxo-6-(3-(piperidin-1-ylmethyl)phenyl)-4,5,6,7-tetrahydro-1H-pyrazolo[3,4-c]pyridine-3-carboxamide] | 300 to 1000 nM | > 10000 nM
3 | O=C(NCc1cccnc1)c1nn(-c2cccc(Cl)c2)c2c1CCN(c1cccc(CN3CCCCC3)c1)C2=O [Example 1003, 1-(3-chlorophenyl)-7-oxo-6-(3-(piperidin-1-ylmethyl)phenyl)-N-(pyridin-3-ylmethyl)-4,5,6,7-tetrahydro-1H-pyrazolo[3,4-c]pyridine-3-carboxamide] | 300 to 1000 nM | > 100000 nM
4 | CN(Cc1ccccc1)C(=O)c1nn(-c2cccc(Cl)c2)c2c1CCN(c1cccc(CN3CCCCC3)c1)C2=O [Example 1004, N-benzyl-1-(3-chlorophenyl)-N-methyl-7-oxo-6-(3-(piperidin-1-ylmethyl)phenyl)-4,5,6,7-tetrahydro-1H-pyrazolo[3,4-c]pyridine-3-carboxamide] | 1000 to 3000 nM | > 40000 nM
5 | CN1CCc2ccc(N3CCc4c(C(=O)NCc5ccccc5)nn(-c5cccc(Cl)c5)c4C3=O)cc2C1 [Example 1005, N-benzyl-1-(3-chlorophenyl)-6-(2-methyl-1,2,3,4-tetrahydroisoquinolin-7-yl)-7-oxo-4,5,6,7-tetrahydro-1H-pyrazolo[3,4-c]pyridine-3-carboxamide] | 10 to 100 nM | 3000 to 10000 nM
6 | O=C(OCc1ccccc1)c1nn(-c2cccc(Cl)c2)c2c1CCN(c1cccc(CN3CCCCC3)c1)C2=O [Example 1006, benzyl 1-(3-chlorophenyl)-7-oxo-6-(3-(piperidin-1-ylmethyl)phenyl)-4,5,6,7-tetrahydro-1H-pyrazolo[3,4-c]pyridine-3-carboxylate] | 300 to 1000 nM | 10000 to 40000 nM
7 | CCOC(=O)c1nn(-c2cccc(Cl)c2)c2c1CCN(c1cccc(CN3CCCCC3)c1)C2=O [Example 1007, ethyl 1-(3-chlorophenyl)-7-oxo-6-(3-(piperidin-1-ylmethyl)phenyl)-4,5,6,7-tetrahydro-1H-pyrazolo[3,4-c]pyridine-3-carboxylate] | 100 to 300 nM | 10000 to 40000 nM
8 | O=C(N[C@H](CO)c1ccccc1)c1nn(-c2cccc(Cl)c2)c2c1CCN(c1cccc(CN3CCCCC3)c1)C2=O [Example 1008, (S)-1-(3-chlorophenyl)-N-(2-hydroxy-1-phenylethyl)-7-oxo-6-(3-(piperidin-1-ylmethyl)phenyl)-4,5,6,7-tetrahydro-1H-pyrazolo[3,4-c]pyridine-3-carboxamide] | 300 to 1000 nM | > 100000 nM
9 | O=C(c1nn(-c2cccc(Cl)c2)c2c1CCN(c1cccc(CN3CCCCC3)c1)C2=O)N1CCCC1 [Example 1009, 1-(3-chlorophenyl)-6-(3-(piperidin-1-ylmethyl)phenyl)-3-(pyrrolidine-1-carbonyl)-1,4,5,6-tetrahydro-7H-pyrazolo[3,4-c]pyridin-7-one] | 3000 to 10000 nM | > 100000 nM
10 | O=C(NC1CCCCC1)c1nn(-c2cccc(Cl)c2)c2c1CCN(c1cccc(CN3CCCCC3)c1)C2=O [Example 1010, 1-(3-chlorophenyl)-N-cyclohexyl-7-oxo-6-(3-(piperidin-1-ylmethyl)phenyl)-4,5,6,7-tetrahydro-1H-pyrazolo[3,4-c]pyridine-3-carboxamide] | 300 to 1000 nM | > 100000 nM
11 | CCNC(=O)c1nn(-c2cccc(Cl)c2)c2c1CCN(c1cccc(CN3CCCCC3)c1)C2=O [Example 1011, 1-(3-chlorophenyl)-N-ethyl-7-oxo-6-(3-(piperidin-1-ylmethyl)phenyl)-4,5,6,7-tetrahydro-1H-pyrazolo[3,4-c]pyridine-3-carboxamide] | 3000 to 10000 nM | > 100000 nM
12 | CN1CCc2ccc(N3CCc4c(C(=O)NCC5CC5)nn(-c5cccc(Cl)c5)c4C3=O)cc2C1 [Example 1012, 1-(3-chlorophenyl)-N-(cyclopropylmethyl)-6-(2-methyl-1,2,3,4-tetrahydroisoquinolin-7-yl)-7-oxo-4,5,6,7-tetrahydro-1H-pyrazolo[3,4-c]pyridine-3-carboxamide] | 300 to 1000 nM | 10000 to 40000 nM
13 | CCOC(=O)c1nn(-c2cccc(Cl)c2)c2c1CCN(c1ccc3c(c1)CN(C)CC3)C2=O [Example 1013, ethyl 1-(3-chlorophenyl)-6-(2-methyl-1,2,3,4-tetrahydroisoquinolin-7-yl)-7-oxo-4,5,6,7-tetrahydro-1H-pyrazolo[3,4-c]pyridine-3-carboxylate] | 100 to 300 nM | 300 to 1000 nM
14 | CCNC(=O)c1nn(-c2cccc(Cl)c2)c2c1CCN(c1ccc3c(c1)CN(C)CC3)C2=O [Example 1014, 1-(3-chlorophenyl)-N-ethyl-6-(2-methyl-1,2,3,4-tetrahydroisoquinolin-7-yl)-7-oxo-4,5,6,7-tetrahydro-1H-pyrazolo[3,4-c]pyridine-3-carboxamide] | 300 to 1000 nM | 10000 to 40000 nM
15 | CN1CCc2ccc(N3CCc4c(C(=O)NCc5cccnc5)nn(-c5cccc(Cl)c5)c4C3=O)cc2C1 [Example 1015, 1-(3-chlorophenyl)-6-(2-methyl-1,2,3,4-tetrahydroisoquinolin-7-yl)-7-oxo-N-(pyridin-3-ylmethyl)-4,5,6,7-tetrahydro-1H-pyrazolo[3,4-c]pyridine-3-carboxamide] | 100 to 300 nM | 10000 to 40000 nM
16 | O=C(NCc1ccccc1)c1nn(-c2cccc(Cl)c2)c2c1CCN(c1ccc3c(c1)CN(CC1CC1)CC3)C2=O [Example 1019, N-benzyl-1-(3-chlorophenyl)-6-(2-(cyclopropylmethyl)-1,2,3,4-tetrahydroisoquinolin-7-yl)-7-oxo-4,5,6,7-tetrahydro-1H-pyrazolo[3,4-c]pyridine-3-carboxamide] | 100 to 300 nM | > 40000 nM
17 | CCN1CCc2ccc(N3CCc4c(C(=O)NCc5ccccc5)nn(-c5cccc(Cl)c5)c4C3=O)cc2C1 [Example 1021, N-benzyl-1-(3-chlorophenyl)-6-(2-ethyl-1,2,3,4-tetrahydroisoquinolin-7-yl)-7-oxo-4,5,6,7-tetrahydro-1H-pyrazolo[3,4-c]pyridine-3-carboxamide] | 10 to 100 nM | 3000 to 10000 nM
18 | CC(C)N1CCc2ccc(N3CCc4c(C(=O)NCc5ccccc5)nn(-c5cccc(Cl)c5)c4C3=O)cc2C1 [Example 1022, N-benzyl-1-(3-chlorophenyl)-6-(2-isopropyl-1,2,3,4-tetrahydroisoquinolin-7-yl)-7-oxo-4,5,6,7-tetrahydro-1H-pyrazolo[3,4-c]pyridine-3-carboxamide] | 10 to 100 nM | 3000 to 10000 nM
19 | Cc1nc2c(C#N)nn(-c3cccc(Cl)c3)c2c(=O)n1-c1ccc2c(c1)CN(C)CC2 [Example 3002, 1-(3-Chlorophenyl)-5-methyl-6-(2-methyl-1,2,3,4-tetrahydroisoquinolin-7-yl)-7-oxo-6,7-dihydro-1H-pyrazolo[4,3-d]pyrimidine-3-carbonitrile] | 100 to 300 nM | 
20 | Cc1nc2c(C(=O)NCC3CC3)nn(-c3cccc(Cl)c3F)c2c(=O)n1-c1ccc2c(c1)C(=O)N(C)CCO2 [Example 3023, 1-(3-chloro-2-fluorophenyl)-N-(cyclopropylmethyl)-5-methyl-6-(4-methyl-5-oxo-2,3,4,5-tetrahydrobenzo[f][1,4]oxazepin-7-yl)-7-oxo-6,7-dihydro-1H-pyrazolo[4,3-d]pyrimidine-3-carboxamide] | 300 to 1000 nM | 
21 | Cc1ccncc1CNC(=O)n1nc(-c2cccc(Cl)c2)c2c1CCN(c1ccc3c(c1)CN(CCO)CC3)C2=O [Example 4003, 3-(3-chlorophenyl)-5-(2-(2-hydroxyethyl)-1,2,3,4-tetrahydroisoquinolin-7-yl)-N-((4-methylpyridin-3-yl)methyl)-4-oxo-4,5,6,7-tetrahydro-1H-pyrazolo[4,3-c]pyridine-1-carboxamide] | 100 to 300 nM | 
22 | O=C(Cn1nc(-c2cccc(Cl)c2)c2c1CCN(c1ccc3c(c1)CN(CCO)CC3)C2=O)NC1CC1 [Example 4004, 2-(3-(3-chlorophenyl)-5-(2-(2-hydroxyethyl)-1,2,3,4-tetrahydroisoquinolin-7-yl)-4-oxo-4,5,6,7-tetrahydro-1H-pyrazolo[4,3-c]pyridin-1-yl)-N-cyclopropylacetamide] | 1000 to 3000 nM | 

From patent US20260132132A1, “3A,4,5,6-TETRAHYDRO-1 H-PYRAZOLO[3,4-C]PYRIDIN-7(7AH)-ONE DERIVATIVES AS FACTOR XIIA INHIBITORS” (KALVISTA PHARMACEUTICALS LIMITED, priority 2022, published 2026)
